Reference: PubChem BioAssay AID1963961 (Molecular Pharmacology Branch, DTP, NCI, 2024)

Test system: K98450-129-R-PDC multicell spheroids, viability
Assay: Anticancer human tumor K98450-129-R-PDC patient-derived colon adenocarcinoma cell line growth inhibition [PI3K]
Settings: for IC50: curve of first compound; for viability, T/C: stronger effect = lower value
Method in brief: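 We assembled tumor spheroids that included a stromal compartment of HUVEC and MSCs, then exposed them to targeted agents alone and together with PI3K pathway inhibitors. Concentration series descended by half-log from clinically achievable Cmax levels. Viability served as the endpoint.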

[1] = second compound 0.0316 µM, first compound 0.0316 µM
[2] = second compound 0.0316 µM, first compound 0.1 µM
[3] = second compound 0.0316 µM, first compound 0.316 µM
[4] = second compound 0.0316 µM, first compound 1 µM
[5] = second compound 0.0316 µM, first compound 3.16 µM
[6] = second compound 0.0316 µM, first compound 10 µM
[7] = second compound 0.1 µM, first compound 0.0316 µM
[8] = second compound 0.1 µM, first compound 0.1 µM
[9] = second compound 0.1 µM, first compound 0.316 µM
[10] = second compound 0.1 µM, first compound 1 µM
[11] = second compound 0.1 µM, first compound 3.16 µM
[12] = second compound 0.1 µM, first compound 10 µM
[13] = second compound 0.316 µM, first compound 0.0316 µM
[14] = second compound 0.316 µM, first compound 0.1 µM
[15] = second compound 0.316 µM, first compound 0.316 µM
[16] = second compound 0.316 µM, first compound 1 µM
[17] = second compound 0.316 µM, first compound 3.16 µM
[18] = second compound 0.316 µM, first compound 10 µM
[19] = second compound 1 µM, first compound 0.0316 µM
[20] = second compound 1 µM, first compound 0.1 µM
[21] = second compound 1 µM, first compound 0.316 µM
[22] = second compound 1 µM, first compound 1 µM
[23] = second compound 1 µM, first compound 3.16 µM
[24] = second compound 1 µM, first compound 10 µM
[25] = second compound 3.16 µM, first compound 0.0316 µM
[26] = second compound 3.16 µM, first compound 0.1 µM
[27] = second compound 3.16 µM, first compound 0.316 µM
[28] = second compound 3.16 µM, first compound 1 µM
[29] = second compound 3.16 µM, first compound 3.16 µM
[30] = second compound 3.16 µM, first compound 10 µM
[31] = second compound 10 µM, first compound 0.0316 µM
[32] = second compound 10 µM, first compound 0.1 µM
[33] = second compound 10 µM, first compound 0.316 µM
[34] = second compound 10 µM, first compound 1 µM
[35] = second compound 10 µM, first compound 3.16 µM
[36] = second compound 10 µM, first compound 10 µM
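Note: spheroids exposed to agents for seven days before read-out.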

CC1(C)CCC(CN2CCN(c3ccc(C(=O)NS(=O)(=O)c4ccc(NCC5CCOCC5)c([N+](=O)[O-])c4)c(Oc4cnc5[nH]ccc5c4)c3)CC2)=C(c2ccc(Cl)cc2)C1 + Cc1nc(NC(=O)N2CCCC2C(N)=O)sc1-c1ccnc(C(C)(C)C(F)(F)F)c1
IC50 (second compound 0.0316 µM): 6.03 µM
IC50 (second compound 0.1 µM): 5.71 µM
IC50 (second compound 0.316 µM): 5.78 µM
IC50 (second compound 1 µM): 5.4 µM
IC50 (second compound 3.16 µM): 5.16 µM
IC50 (second compound 10 µM): 4.66 µM
viability, T/C [1]: 105%
viability, T/C [2]: 101%
viability, T/C [3]: 106%
viability, T/C [4]: 100%
viability, T/C [5]: 98.3%
viability, T/C [6]: 12.2%
viability, T/C [7]: 104%
viability, T/C [8]: 96.9%
viability, T/C [9]: 104%
viability, T/C [10]: 95%
viability, T/C [11]: 92.5%
viability, T/C [12]: 9.67%
viability, T/C [13]: 99.5%
viability, T/C [14]: 95.5%
viability, T/C [15]: 98.6%
viability, T/C [16]: 92.4%
viability, T/C [17]: 93.5%
viability, T/C [18]: 10.5%
viability, T/C [19]: 88.4%
viability, T/C [20]: 94.4%
viability, T/C [21]: 94.9%
viability, T/C [22]: 91%
viability, T/C [23]: 88.4%
viability, T/C [24]: 5.86%
viability, T/C [25]: 80.6%
viability, T/C [26]: 87.4%
viability, T/C [27]: 86%
viability, T/C [28]: 84.3%
viability, T/C [29]: 83%
viability, T/C [30]: 5.29%
viability, T/C [31]: 70%
viability, T/C [32]: 73.9%
viability, T/C [33]: 72.9%
viability, T/C [34]: 68.5%
viability, T/C [35]: 77%
viability, T/C [36]: 5.54%

C[C@@H](NC(=O)c1ncnc(N)c1Cl)c1ncc(C(=O)Nc2cc(C(F)(F)F)c(Cl)cn2)s1 + Cc1nc(NC(=O)N2CCCC2C(N)=O)sc1-c1ccnc(C(C)(C)C(F)(F)F)c1
IC50 (second compound 0.0316 µM): > 10 µM
IC50 (second compound 0.1 µM): > 10 µM
IC50 (second compound 0.316 µM): > 10 µM
IC50 (second compound 1 µM): > 10 µM
IC50 (second compound 3.16 µM): > 10 µM
IC50 (second compound 10 µM): > 10 µM
viability, T/C [1]: 104%
viability, T/C [2]: 106%
viability, T/C [3]: 119%
viability, T/C [4]: 117%
viability, T/C [5]: 112%
viability, T/C [6]: 103%
viability, T/C [7]: 117%
viability, T/C [8]: 98.2%
viability, T/C [9]: 119%
viability, T/C [10]: 104%
viability, T/C [11]: 112%
viability, T/C [12]: 104%
viability, T/C [13]: 107%
viability, T/C [14]: 104%
viability, T/C [15]: 106%
viability, T/C [16]: 108%
viability, T/C [17]: 110%
viability, T/C [18]: 103%
viability, T/C [19]: 92.6%
viability, T/C [20]: 99%
viability, T/C [21]: 105%
viability, T/C [22]: 102%
viability, T/C [23]: 111%
viability, T/C [24]: 90%
viability, T/C [25]: 84.8%
viability, T/C [26]: 90.3%
viability, T/C [27]: 96.5%
viability, T/C [28]: 91.7%
viability, T/C [29]: 95.8%
viability, T/C [30]: 75.1%
viability, T/C [31]: 76.5%
viability, T/C [32]: 74.3%
viability, T/C [33]: 83.7%
viability, T/C [34]: 76.8%
viability, T/C [35]: 72.5%
viability, T/C [36]: 58.5%

Cn1ncnc1[C@H]1c2n[nH]c(=O)c3cc(F)cc(c23)N[C@@H]1c1ccc(F)cc1 + Cc1nc(NC(=O)N2CCCC2C(N)=O)sc1-c1ccnc(C(C)(C)C(F)(F)F)c1
IC50 (second compound 0.0316 µM): > 0.1 µM
IC50 (second compound 0.1 µM): > 0.1 µM
IC50 (second compound 0.316 µM): > 0.1 µM
IC50 (second compound 1 µM): > 0.1 µM
IC50 (second compound 3.16 µM): > 0.1 µM
IC50 (second compound 10 µM): > 0.1 µM
viability, T/C (second compound 0.0316 µM, first compound 0.000316 µM): 110%
viability, T/C (second compound 0.0316 µM, first compound 0.001 µM): 108%
viability, T/C (second compound 0.0316 µM, first compound 0.00316 µM): 109%
viability, T/C (second compound 0.0316 µM, first compound 0.01 µM): 97.3%
viability, T/C [1]: 101%
viability, T/C [2]: 96.3%
viability, T/C (second compound 0.1 µM, first compound 0.000316 µM): 108%
viability, T/C (second compound 0.1 µM, first compound 0.001 µM): 99.2%
viability, T/C (second compound 0.1 µM, first compound 0.00316 µM): 106%
viability, T/C (second compound 0.1 µM, first compound 0.01 µM): 100%
viability, T/C [7]: 102%
viability, T/C [8]: 97.6%
viability, T/C (second compound 0.316 µM, first compound 0.000316 µM): 96.5%
viability, T/C (second compound 0.316 µM, first compound 0.001 µM): 99%
viability, T/C (second compound 0.316 µM, first compound 0.00316 µM): 99.9%
viability, T/C (second compound 0.316 µM, first compound 0.01 µM): 97.8%
viability, T/C [13]: 104%
viability, T/C [14]: 87.3%
viability, T/C (second compound 1 µM, first compound 0.000316 µM): 89.4%
viability, T/C (second compound 1 µM, first compound 0.001 µM): 98.1%
viability, T/C (second compound 1 µM, first compound 0.00316 µM): 95.2%
viability, T/C (second compound 1 µM, first compound 0.01 µM): 90.7%
viability, T/C [19]: 101%
viability, T/C [20]: 91.9%
viability, T/C (second compound 3.16 µM, first compound 0.000316 µM): 85%
viability, T/C (second compound 3.16 µM, first compound 0.001 µM): 89.4%
viability, T/C (second compound 3.16 µM, first compound 0.00316 µM): 86.9%
viability, T/C (second compound 3.16 µM, first compound 0.01 µM): 86%
viability, T/C [25]: 91.6%
viability, T/C [26]: 80.3%
viability, T/C (second compound 10 µM, first compound 0.000316 µM): 72.4%
viability, T/C (second compound 10 µM, first compound 0.001 µM): 73.1%
viability, T/C (second compound 10 µM, first compound 0.00316 µM): 75.7%
viability, T/C (second compound 10 µM, first compound 0.01 µM): 71.5%
viability, T/C [31]: 74.8%
viability, T/C [32]: 70.2%
